Data taken from patent publication US20100197650A1, “COMPOSITIONS AND METHODS OF TREATMENT COMPRISING CEFTAROLINE” (FOREST LABORATORIES HOLDINGS LTD., priority 2008, published 2010).
Converted amounts (≈) assume the structure as drawn. Like-named read-outs stand apart in the source and are kept apart here. Values belong to the compound of their own block, whether it stands above or below them.

What was measured:
Staphylococcus aureus = assay: MIC, broth microdilution (Example 1); format: cell-based; conditions: Staphylococcus aureus, ATCC29213, S. aureus 0100 (ATCC 29213), FIC control; read-out: MIC
Description: (§1) Stock solutions of all antibacterial agents were prepared at 80-fold (80×) the final target concentration in the appropriate solvent and the solution was allowed to stand for 60 minutes. All antibacterial agents were in solution under these conditions. The final drug concentrations in the FIC assay plates were set to bracket the MIC value of each agent for each test organism, unless the strain was totally resistant to the test agent.
(§2) The test organisms were originally received from clinical sources, or from the American Type Culture Collection. Upon receipt, the isolates were streaked onto the appropriate growth medium: Chocolate Agar for H. influenzae, Tryptic Soy Agar II (Becton Dickinson, Sparks, Md.) supplemented with 5% defibrinated sheep blood for streptococci, and unsupplemented Tryptic Soy Agar II for all other organisms. Colonies were harvested from these plates and a cell suspension was prepared in Tryptic Soy Broth (Becton Dickinson) containing cryoprotectant. Aliquots were then frozen at −80° C. On the day prior to assay, the frozen seeds of the organisms to be tested in that session were thawed and streaked for isolation onto the appropriate agar medium plates and incubated overnight at 35° C.
(§3) The test medium for H. influenzae was Haemophilus Test Medium. Streptococci were tested in Mueller Hinton II Broth (Becton Dickinson; Lot 6235472) supplemented with 2% lysed horse blood (Cleveland Scientific, Bath, Ohio; Lot H88621). All other organisms were tested in Mueller Hinton II Broth (Becton Dickinson, Lot 6235472). The broth was prepared at 1.05× normal weight/volume to offset the 5% volume of the drugs in the final test plates.
(§4) In order to select the proper test concentrations for each drug combination, minimal inhibitory concentration (MIC) values were first determined using the broth microdilution method previously described (Clinical and Laboratory Standards Institute. Methods for Dilution Antimicrobial Susceptibility Tests for Bacteria That Grow Aerobically; Approved Standard—Seventh Edition. Clinical and Laboratory Standards Institute document M7-A7 [ISBN 1-56238-587-9]. Clinical and Laboratory Standards Institute, 940 West Valley Road, Suite 1400, Wayne, Pa. 19087-1898 USA, 2006).
(§5) The wells of standard 96-well microdilution plates (Falcon 3918) were filled with 150 μL of 100% DMSO using the Multidrop 384. These plates were used to prepare the drug “mother plates” which provided the serial drug dilutions for the drug combination plates. The Biomek 2000 was used to transfer 150 μl of each stock solution (80×) from the wells in Column 1 of a deep well plate to the corresponding wells in Column 1 of the mother plate and to make seven 2-fold serial dilutions. Two mother plates, one for each drug, were combined to form a “checkerboard” pattern by transfer of equal volumes (using a multi-channel pipette) to the drug combination plate. Row H and Column 8 each contained serial dilutions of one of the agents alone for determination of the MIC.
(§6) Plates were stacked 3 high, covered with a lid on the top plate, placed in plastic bags, and incubated at 35° C. for approximately 20 hours. Following incubation, the microplates were removed from the incubator and viewed from the bottom using a ScienceWare plate viewer. Prepared reading sheets were marked for the MIC of drug 1 (row H), the MIC of drug 2 (column 8) and the wells of the growth-no growth interface.

Streptococcus pneumoniae = assay: MIC, broth microdilution (Example 1); format: cell-based
Description: as §1, §2, §3, §4, §5, §6

Haemophilus influenzae = assay: MIC, broth microdilution (Example 1); format: cell-based; conditions: Haemophilus influenzae, read-out: MIC
Description: as §1, §2, §3, §4, §5, §6

[1] = tested on: ESBL-producing Klebsiella pneumoniae; assay: Susceptibility testing MIC/MBC, broth microdilution (Example 2); format: cell-based; conditions: Klebsiella pneumoniae; for MBC: read-out: MBC
ESBL-producing E. coli = assay: as above; format: cell-based, Escherichia coli; conditions: for MBC / MIC: Escherichia coli; for MBC: read-out: MBC; for MIC: read-out: MIC
Escherichia coli = assay: MIC, broth microdilution (Example 1); format: cell-based; conditions: Escherichia coli, read-out: MIC
Description: as §1, §2, §3, §4, §5, §6

Klebsiella pneumoniae = assay: MIC, broth microdilution (Example 1); format: cell-based; conditions: Klebsiella pneumoniae, read-out: MIC
Description: as §1, §2, §3, §4, §5, §6

Enterococcus faecalis = assay: MIC, broth microdilution (Example 1); format: cell-based; conditions: Enterococcus faecalis, ATCC29212, E. faecalis 0101 (ATCC 29212), FIC control; read-out: MIC
Description: as §1, §2, §3, §4, §5, §6

MIC (Staphylococcus aureus): 4 µg/mL
SMILES: CC1(C)S[C@@H]2[C@H](NC(=O)[C@H](N)c3ccc(O)cc3)C(=O)N2[C@H]1C(=O)O [Amoxicillin]

MIC (Streptococcus pneumoniae; S. pneumoniae 0877 (PRSP)): >32^a^ μg/mL
MIC (Streptococcus pneumoniae; Streptococcus pneumoniae, PRSP, S. pneumoniae 0876 (PRSP), read-out: MIC): 2 µg/mL
MIC (Streptococcus pneumoniae; Streptococcus pneumoniae, PRSP, S. pneumoniae 0877 (PRSP), read-out: MIC): > 32 µg/mL
MIC (Streptococcus pneumoniae; Streptococcus pneumoniae, S. pneumoniae 0866 (PSSP), read-out: MIC): 0.06 µg/mL
MIC (Streptococcus pneumoniae; Streptococcus pneumoniae, S. pneumoniae 0869 (PSSP), read-out: MIC): 0.06 µg/mL
MIC (Haemophilus influenzae; H. influenzae 1224): 1 µg/mL
MIC (Haemophilus influenzae; H. influenzae 2797 (BLNAR)): 1 µg/mL
MIC (Haemophilus influenzae; H. influenzae 2798 (BLNAR)): 2 µg/mL
MIC (Haemophilus influenzae; H. influenzae 2799 (BLNAR)): 0.25 µg/mL
SMILES: CC[C@H]1OC(=O)[C@H](C)[C@@H](O[C@H]2C[C@@](C)(OC)[C@@H](O)[C@H](C)O2)[C@H](C)[C@@H](O[C@@H]2O[C@H](C)C[C@H](N(C)C)[C@H]2O)[C@](C)(O)C[C@@H](C)CN(C)[C@H](C)[C@@H](O)[C@]1(C)O [Azithromycin]

MIC ([1]; 1 K. pneumoniae isolate, read-out: MIC): 0.5 µg/mL (≈ 1.15 µM)
MIC ([1]; K. pneumonia isolate no. 5427, read-out: MIC): 0.5 µg/mL (≈ 1.15 µM)
MIC ([1]; K. pneumonia isolate no. 5436, read-out: MIC): 64 µg/mL (≈ 147 µM)
MIC ([1]; all K. pneumoniae except 1 isolate, read-out: MIC values): ≥ 8 µg/mL
MIC (ESBL-producing E. coli; E. coli isolate no. 5401): 0.25 µg/mL (≈ 0.574 µM)
MIC (ESBL-producing E. coli; E. coli isolate no. 5411): 8 µg/mL (≈ 18.4 µM)
MIC (Escherichia coli; E. coli 1587): 0.25 µg/mL
MIC (Escherichia coli; E. coli 2273 (ESBL)): 16 µg/mL
MIC (Klebsiella pneumoniae; K. pneumoniae 1340): 0.12 µg/mL
MIC (Klebsiella pneumoniae; K. pneumoniae 1461): 0.25 µg/mL
SMILES: C[C@H]1[C@H](NC(=O)/C(=N\OC(C)(C)C(=O)O)c2csc(N)n2)C(=O)N1S(=O)(=O)O [Aztreonam]
MBC ([1]; K. pneumonia isolate no. 5427): 1 µg/mL (≈ 2.3 µM)
MBC ([1]; K. pneumonia isolate no. 5436): 64 µg/mL (≈ 147 µM)
MBC (ESBL-producing E. coli; E. coli isolate no. 5401): 0.25 µg/mL (≈ 0.574 µM)
MBC (ESBL-producing E. coli; E. coli isolate no. 5411): 32 µg/mL (≈ 73.5 µM)

MIC range (ESBL-producing E. coli; E. coli (10) clinical isolates): 0.125 to 256 µg/mL
MIC (ESBL-producing E. coli; E. coli isolate no. 5401): 4 µg/mL (≈ 8.32 µM)
MIC (ESBL-producing E. coli; E. coli isolate no. 5411): 2 µg/mL (≈ 4.16 µM)
SMILES: CO/N=C(\C(=O)N[C@@H]1C(=O)N2C(C(=O)[O-])=C(C[N+]3(C)CCCC3)CS[C@H]12)c1csc(N)n1 [Cefepime]
MBC range (ESBL-producing E. coli; E. coli (10) clinical isolates): 0.25 to 512 µg/mL
MBC (ESBL-producing E. coli; E. coli isolate no. 5401): 4 µg/mL (≈ 8.32 µM)
MBC (ESBL-producing E. coli; E. coli isolate no. 5411): 4 µg/mL (≈ 8.32 µM)

MIC (Enterococcus faecalis): 8 µg/mL
MIC (Staphylococcus aureus): 16 µg/mL
SMILES: O=C(N[C@H](CO)[C@H](O)c1ccc([N+](=O)[O-])cc1)C(Cl)Cl [Chloramphenicol]
